# Measured values reported in US5624959A, “Naphthyloxyacetic acid” (Ono Pharmaceutical Co., Ltd., priority 1993, dated 1997).
# Target: T1, prostanoide receptor subtype (mouse EP3a) (Mus musculus, UniProt P30557)
# T1 construct: expressed in transfected cells
# T1 sequence (P30557 1-365): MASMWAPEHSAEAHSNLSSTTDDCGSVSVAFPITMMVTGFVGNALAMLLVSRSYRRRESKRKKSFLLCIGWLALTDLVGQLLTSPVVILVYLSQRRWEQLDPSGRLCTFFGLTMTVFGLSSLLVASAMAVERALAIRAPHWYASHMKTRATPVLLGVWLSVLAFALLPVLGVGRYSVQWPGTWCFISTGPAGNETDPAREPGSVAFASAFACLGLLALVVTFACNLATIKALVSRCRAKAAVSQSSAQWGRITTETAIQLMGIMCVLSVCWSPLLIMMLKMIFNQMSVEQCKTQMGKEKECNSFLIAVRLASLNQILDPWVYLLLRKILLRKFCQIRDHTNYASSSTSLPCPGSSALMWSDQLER
# Assay: Binding assay using expression cell of prostanoide receptor subtype ([3H]PGE2 competition, membrane fraction)
# Details: mouse EP3a membrane fraction (0.5 mg/ml); [3H]-PGE2 2.5 nM; pH 6.0; 1 hour at room temperature; Ki=IC50/(1+([c]/Kd)); read-out: Ki (dissociation constant)
# Protocol: (i) Binding assay using expression cell of prostanoide receptor subtype
# The preparation of membrane fraction was carried out according to the method of Sugimoto et al [J. Biol. Chem. 267, 6463-6466(1992)], using prostanoide receptor subtype (mouse EP3a).
# The standard assay mixture containing a membrane fraction (0.5 mg/ml), [^3 H]PGE2 in a final volume of […] was incubated for 1 hour at room temperature. The reaction was terminated by the addition of 3 ml of ice-cooled buffer. The mixture was rapidly filtered through a Whatman GF/B glass filter. The radioactivity associated with the filter was measured in ACS II (Amarsham) by liquid scintillation counting.
# Kd and Bmax values were determined from Scatchard plots [Ann. N.Y. Acad. Sci., 51,660(1949)]. Non-specific binding was calculated as the bond in the presence of an excess (2.5 mM) of unlabeled PGE2. In the experiment for competition of specific [^3 H]-PGE2 binding by the compounds of the present invention, [^3 H]-PGE2 was added at a concentration of 2.5 nM and the compounds of the present invention were at a concentration of 1 mM.
# The following buffer was used in all reactions. Buffer: 10 mM potassium phosphate (pH 6.0), 1 mM EDTA, 10 mM MgCl2, 0.1 M NaCl
# The dissociation constant (Ki) of each compound was calculated by the following equation.
row,SMILES,Ki
1,"O=C(O)COc1cccc2c1CCC=C2CCNS(=O)(=O)/C=C/c1ccccc1 [Example 3(aa), 5-[2-[(2-phenylvinyl)sulfonylamino]ethyl]-7,8-dihydronaphthyloxyacetic acid]",0.0079 µM
2,"O=C(O)COc1cccc2c3c(ccc12)CCC(NS(=O)(=O)/C=C/c1ccccc1)C3 (stereo not shown) [Example 3(ff), 6-[(2-phenylvinyl)sulfonylamino]-5,6,7,8-tetrahydrophenanthrene-1-yl-oxyacetic acid]",0.0025 µM
3,O=C(O)COc1cccc2c(CCNS(=O)(=O)/C=C/c3ccccc3)cccc12 [Example 3(g)],0.007 µM
4,"O=C(O)COc1cccc2cc(CCNS(=O)(=O)/C=C/c3ccccc3)ccc12 [Example 3(h), 6-[2-[(2-phenylvinyl)sulfonylamino]ethyl]naphthyloxyacetic acid]",0.037 µM
5,"O=C(O)COc1cccc2c(NS(=O)(=O)C=C(c3ccccc3)c3ccccc3)cccc12 [Example 3(i), 5-[(2,2-diphenylvinyl)sulfonylamino]naphthyloxyacetic acid]",0.037 µM
6,"O=C(O)COc1cccc2c1CCCC2NS(=O)(=O)C=C(c1ccccc1)c1ccccc1 (stereo not shown) [Example 3(p), 5-[(2,2-diphenylvinyl)sulfonylamino]-5,6,7,8-tetrahydronaphthyloxyacetic acid]",0.036 µM
7,"O=C(O)COc1cccc2c1CCCC2NS(=O)(=O)c1ccc2ccccc2c1 (stereo not shown) [Example 3(q), 5-(naphth-2-yl-sulfonylamino)-5,6,7,8-tetrahydronaphthyloxyacetic acid]",0.32 µM
8,"O=C(O)COc1cccc2c(NS(=O)(=O)CCc3ccccc3)cccc12 [Example 3(v), 5-[(2-phenylethyl)sulfonylamino]naphthyloxyacetic acid]",0.017 µM
9,"O=C(O)COc1cccc2c(CCNS(=O)(=O)CCc3ccccc3)cccc12 [Example 3(w), 5-[2-[(2-phenylethyl)sulfonylamino]ethyl]naphthyloxyacetic acid]",0.028 µM
10,O=C(O)COc1cccc2c(CCS(=O)(=O)NCC(c3ccccc3)c3ccccc3)cccc12 [Example 6(f)],0.0075 µM
